Experimental data taken from PMC6071666 (Bioorganic & medicinal chemistry, 2018).

Molecular target: LSD1 (Homo sapiens, UniProt O60341)
Assay: in vitro demethylation of H3K4me2 peptide by GST-LSD1, mass spectrometry readout
Assay type: biochemical

For CC(C)(C)OC(=O)NC1CC1c1ccc(OC(=O)OC(C)(C)C)cc1 (stereo not shown) [compound 3, tert-butyl 2-(4-(tert-butoxycarbonyloxy)phenyl)cyclopropylcarbamate], the IC50 was about 21.2 µM.
